# Measured values as given in article PMC9963138 (Molecules, 2023).
# Entries after “also recorded” stand apart in the source; their conditions may differ. Positions of bridges follow the written chain, without caps; N, C: chain ends. Non-standard residues stand in square brackets, D forms with d. Residues, ends and D or L forms follow the SMILES beside them. Pen = CC(C)(S)[C@H](N)C(=O)O; Orn = NCCC[C@H](N)C(=O)O
# Experiments:
# asialofetuin (ASF) = target: T1, asialofetuin (ASF) (Bos taurus, UniProt P12763); experiment: Carbohydrate-binding study by isothermal titration calorimetry (ITC)
# T1 construct: purchased Sigma-Aldrich
# T1 sequence (P12763 19-359): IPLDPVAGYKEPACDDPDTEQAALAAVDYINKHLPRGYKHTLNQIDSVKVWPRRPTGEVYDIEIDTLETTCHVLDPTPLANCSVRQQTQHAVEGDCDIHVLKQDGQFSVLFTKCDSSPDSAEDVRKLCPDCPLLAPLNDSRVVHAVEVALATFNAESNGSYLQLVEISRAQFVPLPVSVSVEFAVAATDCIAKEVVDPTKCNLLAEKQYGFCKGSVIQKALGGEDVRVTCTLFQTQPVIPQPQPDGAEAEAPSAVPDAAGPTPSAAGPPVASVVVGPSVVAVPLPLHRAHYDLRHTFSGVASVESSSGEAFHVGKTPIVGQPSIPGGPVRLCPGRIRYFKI
# Method: We have shown previously that odorranalectin binds to model glycoproteins containing terminal Fuc, Gal and GalNAc sugar moieties with μM affinities and identified the binding interface. […] The binding affinities of OL-CTOP toward ASF were determined by Isothermal Titration Calorimetry (ITC). […] The enthalpy (ΔH) of the binding interaction between OL-CTOP and ASF was −131 kJ/mol, whereas the entropy (−TΔS) was 109.5 kJ/mol, showing that the OL-CTOP/ASF interaction is an enthalpy-driven process, which is typical for interactions between lectins and carbohydrate ligands.
# A binding study was performed at 25 °C in 20 mM HEPES at pH 7.0 by using a titration calorimeter PEAQ-ITC (Malvern, Northampton, MA) with a reaction cell volume of 300 μL. Typically, asialofetuin solutions (240 μM) were in the reaction cell and titrated with solutions of OL-CTOP at a concentration of 4000 μM. OL-CTOP and asialofetuin were dialyzed and prepared in the same buffer. At least 18 consecutive injections of 2 μL were applied every 120 s interval at a constant stir speed of 750 rpm. The concentrations of OL-CTOP and ASF were confirmed by measurements using a BioTek Epoch microplate spectrophotometer (Agilent Technologies, Santa Clara, CA, USA). The raw integrated heat plots were analyzed using the MicroCal PEAQ-ITC software v1.21 (Malvern) under the 1-set-of-sites model, and the control parameter as a fitted offset was applied to each titration as per the manufacturer’s guidelines and our previous applications. The reported thermodynamic parameters were derived from two independent experiments and then averaged.
# MOR = target: T2, MOR (Mus musculus, UniProt P42866); experiment: 55 °C warm-water tail-withdrawal test, antagonism of i.c.v. morphine; format: in vivo, C57BL/6J mice; settings: mice, p = 0.003
# T2 construct: MOR antagonism by CTOP was confirmed in vivo by pretreating mice with the parent peptide; from tissue; host or cells: living male C57BL/6J mice (central nervous system)
# C57BL/6J mice [1] = experiment: Breathing rate in mice (Oxymax/CLAMS), morphine-induced respiratory depression; format: in vivo
# Method: Mice were administered intranasal saline or OL-CTOP (100 or 600 μg) 45 min prior to intraperitoneal morphine (20 mg/kg).
# Respiration rates (in breaths per minute) were assessed using the Oxymax/CLAMS system (Columbus Instruments, Columbus, OH, USA) as described previously. Mice were habituated to their individual sealed housing chambers for 60 min before testing. Mice were administered morphine (20 mg/kg, i.p.) or vehicle, as indicated, and 5 min later, confined to the CLAMS testing chambers. Additional mice received pretreatment with saline (i.n.s.) or OL-CTOP (100 or 600 μg, i.n.s.) 45 min prior to morphine (20 mg/kg, i.p.). Pressure monitoring within the sealed chambers measured the frequency of respiration. Respiration data were averaged over 20 min periods for 120 min post-i.p. injection of the saline or morphine. Data are presented as % vehicle response ± SEM, breaths per minute.
# [2] = target: T3, trypsin immobilized on agarose resin (Bos taurus, UniProt P00760); experiment: Proteolytic stability toward immobilized trypsin; settings: RP-HPLC and MALDI-TOF MS
# T3 sequence (P00760 24-246): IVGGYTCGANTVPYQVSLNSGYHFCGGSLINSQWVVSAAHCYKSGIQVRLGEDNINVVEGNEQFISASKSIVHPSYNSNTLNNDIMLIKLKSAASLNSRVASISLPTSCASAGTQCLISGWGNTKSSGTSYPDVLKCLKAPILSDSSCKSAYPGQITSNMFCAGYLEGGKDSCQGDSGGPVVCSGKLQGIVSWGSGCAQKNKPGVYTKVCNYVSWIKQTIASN
# Method: Immobilized trypsin helped eliminate enzyme digest contamination and thus simplify sample analysis. […] After incubation at 37 °C for 20 min, 1 h, and 16 h, 20 μL of treated samples was collected and analyzed by analytical RP-HPLC and MALDI-TOF MS (Supplementary Materials).
# C57BL/6J mice [3] = experiment: 55 °C warm-water tail-withdrawal test, compound alone
# Method: Graded doses of OL-CTOP (100, 300 or 600 μg) were first administered through the intranasal (i.n.s.) route.
# All mice were lightly anesthetized with isoflurane (0.4%) prior to compound administration. […] The volume of all i.c.v. injections was 5 μL, using a 10-μL Hamilton microliter syringe. An incision was made in the scalp of the lightly anesthetized mouse, and the injection was made 2 mm lateral and 2 mm caudal to bregma at a depth of 3 mm.
# The 55 °C warm-water tail-withdrawal test was performed as previously described [73]. The distal 2.5 cm of a mouse tail was immersed in warm (55 °C) water contained in a 1.5-L heated water bath. The time from the onset of the noxious heat stimulus to the withdrawal of the tail from the heat source was recorded.
# DOR = DOR (Mus musculus, UniProt P32300); experiment: 55 °C warm-water tail-withdrawal test, antagonism of DOR-selective agonist SNC-80; settings: mice; 100 μg i.n.s. pretreatment; SNC-80 100 nmol i.c.v.; p = 0.67; 7–8 mice
# Method: (§1) All solutions for animal administration were prepared fresh daily. All mice were lightly anesthetized with isoflurane (0.4%) prior to compound administration. […] The volume of all i.c.v. injections was 5 μL, using a 10-μL Hamilton microliter syringe. An incision was made in the scalp of the lightly anesthetized mouse, and the injection was made 2 mm lateral and 2 mm caudal to bregma at a depth of 3 mm.
# (§2) The distal 2.5 cm of a mouse tail was immersed in warm (55 °C) water contained in a 1.5-L heated water bath. The time from the onset of the noxious heat stimulus to the withdrawal of the tail from the heat source was recorded.
# KOR = KOR (Mus musculus, UniProt P33534); experiment: 55 °C warm-water tail-withdrawal test, antagonism of KOR-selective agonist U50,488; settings: mice; 100 μg i.n.s. pretreatment; U50,488 100 nmol i.c.v.; p = 0.99; 7–8 mice
# Method: as §1, §2
# μ-opioid receptors (MOR) [4] = settings: cited from earlier work
# μ-opioid receptors (MOR) [5] = settings: cited from earlier work; remark: listed apart in the source
# [6] = system: tosylsulfonyl phenylalanyl chloromethyl ketone (TPCK) trypsin immobilized on agarose resin; experiment: TPCK trypsin immobilized on agarose resin in digestion buffer (0.1 M NH4HCO3 [pH 8.0]); settings: 37 °C, up to 16 h (methods); 24 h (results, b12 and Figure 2)
# [7] = in vivo; cited from earlier work
# Text: Opioid medication misuse, addiction, and overdose are growing public health problems nationwide. Methadone, buprenorphine, naltrexone and naloxone are the only FDA-approved medications to treat opioid use disorder (OUD) and, in the case of opioid receptor antagonists naltrexone and naloxone, overdose. […] Given their potency, peptides represent particularl ...
# [8] = system: model glycoproteins containing terminal Fuc, Gal and GalNAc sugar moieties; settings: cited from earlier work
# Text: We have shown previously that odorranalectin binds to model glycoproteins containing terminal Fuc, Gal and GalNAc sugar moieties with μM affinities and identified the binding interface.
# [9] = 25 °C, 20 mM HEPES pH 7.0, average of two independent experiments
# T2 sequence (P42866 whole entry): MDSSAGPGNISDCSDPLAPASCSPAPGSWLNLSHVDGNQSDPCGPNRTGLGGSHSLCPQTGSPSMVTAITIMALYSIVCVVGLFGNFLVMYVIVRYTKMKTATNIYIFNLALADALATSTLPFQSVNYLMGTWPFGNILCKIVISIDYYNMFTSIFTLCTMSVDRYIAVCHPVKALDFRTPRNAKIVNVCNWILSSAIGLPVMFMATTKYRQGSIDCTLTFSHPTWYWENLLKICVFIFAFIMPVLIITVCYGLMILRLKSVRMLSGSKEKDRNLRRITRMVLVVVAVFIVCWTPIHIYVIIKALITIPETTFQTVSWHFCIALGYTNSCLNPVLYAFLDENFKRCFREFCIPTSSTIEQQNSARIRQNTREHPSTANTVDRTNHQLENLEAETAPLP
# DOR, sequence (P32300 whole entry): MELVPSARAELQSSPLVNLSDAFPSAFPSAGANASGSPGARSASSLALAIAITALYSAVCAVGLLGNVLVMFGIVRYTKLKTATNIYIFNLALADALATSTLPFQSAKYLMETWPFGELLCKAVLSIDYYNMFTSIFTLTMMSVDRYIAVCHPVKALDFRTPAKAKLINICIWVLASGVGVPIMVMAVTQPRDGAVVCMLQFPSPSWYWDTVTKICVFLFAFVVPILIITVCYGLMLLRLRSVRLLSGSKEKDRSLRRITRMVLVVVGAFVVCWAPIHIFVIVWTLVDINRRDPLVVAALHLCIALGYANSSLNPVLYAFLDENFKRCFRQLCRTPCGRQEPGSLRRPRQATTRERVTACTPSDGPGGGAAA
# KOR, sequence (P33534 whole entry): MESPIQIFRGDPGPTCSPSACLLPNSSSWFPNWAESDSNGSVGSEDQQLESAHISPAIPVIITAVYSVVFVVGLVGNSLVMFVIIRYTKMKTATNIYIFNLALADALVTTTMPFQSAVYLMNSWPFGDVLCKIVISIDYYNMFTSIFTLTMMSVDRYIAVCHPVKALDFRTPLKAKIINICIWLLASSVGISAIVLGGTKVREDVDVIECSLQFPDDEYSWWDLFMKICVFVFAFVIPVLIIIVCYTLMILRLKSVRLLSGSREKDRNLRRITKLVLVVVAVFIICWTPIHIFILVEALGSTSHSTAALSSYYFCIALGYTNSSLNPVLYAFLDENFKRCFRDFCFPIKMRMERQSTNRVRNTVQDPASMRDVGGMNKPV
molecule,measurement,setting,value
"C[C@H](NC(=O)[C@@H](N)Cc1ccc(O)cc1)C(=O)N[C@@H](CO)C(=O)N1CCC[C@H]1C(=O)N[C@@H](CCCCN)C(=O)N[C@H]1CSSC[C@@H](C(=O)N[C@H](C(N)=O)[C@@H](C)O)NC(=O)[C@H]([C@@H](C)O)NC(=O)[C@H]2NC(=O)[C@H]([C@@H](C)O)NC(=O)[C@H](CCCN)NC(=O)[C@@H](Cc3c[nH]c4ccccc34)NC(=O)[C@H](Cc3ccc(O)cc3)NC(=O)[C@H](CSSC2(C)C)NC(=O)[C@@H](Cc2ccccc2)NC(=O)[C@H](CCCNC(=N)N)NC(=O)[C@H](Cc2ccccc2)NC1=O [OL-CTOP] (H-YASPKCFR[dF]CY[dW][Orn]T[Pen]TCT-NH2; disulfide 6-17, 10-15; N-terminus assumed)",ΔG of binding,"asialofetuin (ASF); 20 mM HEPES pH 7.0, one-set-of-sites model",-5.14 kcal/mol
same,Kd,"asialofetuin (ASF); 25 °C, 20 mM HEPES pH 7.0, ASF 240 μM in cell, peptide 4000 μM, one-set-of-sites model, average of two independent experiments, read-out: Kd, OL-CTOP/ASF binding",176 µM
same,enthalpy (ΔH) of binding,asialofetuin (ASF); [9],-31.3 kcal/mol
same,entropy (−TΔS) of binding,asialofetuin (ASF); [9],26.17 kcal/mol
same,antagonism of MOR-preferring agonist morphine (selectivity test),"MOR; 100 μg i.n.s. pretreatment, morphine 10 nmol i.c.v., 7–8 mice",significant antagonism
same,"antagonism of morphine antinociception, intranasal pretreatment 30-600 μg","MOR; 30, 100, 300 or 600 μg i.n.s., morphine 10 nmol i.c.v. after return to baseline at 45 min, latency 20, 30, 40 min afterward, five to eight mice",significant general reduction in the antinociceptive effect of morphine
same,"protection from morphine-induced respiratory depression, 100 μg","C57BL/6J mice [1]; 100 μg i.n.s. 45 min prior to morphine 20 mg/kg i.p., p = 0.05 at 20–40 min, p = 0.02 at 40–60 min vs morphine alone",significantly prevented morphine-induced respiratory depression
same,"respiration rate versus vehicle-treated mice, late period, 100 μg","C57BL/6J mice [1]; 100 μg i.n.s. before morphine 20 mg/kg i.p., 60–120 min, p ≤ 0.03",elevated respiration
same,"respiration rate versus vehicle-treated mice out to 60 min, 100 μg","C57BL/6J mice [1]; 100 μg i.n.s. before morphine 20 mg/kg i.p., p = 0.06, 0.55 and 0.75",no significant differences in respiration rate
same,"protection from morphine-induced respiratory depression, 600 μg","C57BL/6J mice [1]; 600 μg i.n.s. 45 min prior to morphine 20 mg/kg i.p., p ≤ 0.009, 0–60 min vs morphine alone",significantly prevented morphine-induced respiratory depression
same,"respiration rate versus vehicle-treated mice, 600 μg","C57BL/6J mice [1]; 600 μg i.n.s. before morphine 20 mg/kg i.p., 20–120 min, p ≤ 0.04",elevated respiration
same,further cleavage after 1 h incubation with trypsin,"[2]; 1 h, immobilized TPCK trypsin, 0.1 M NH4HCO3 pH 8.0, 37 °C",the peptide bond between Arg^8 and phe^9 was also cleaved
same,parent peptide remaining after the first 10 min with trypsin,"[2]; TPCK trypsin immobilized on agarose, 20 TAME units, 0.1 M NH4HCO3 pH 8.0, 1 mg peptide, 37 °C",without a detectable trace of the parent peptide
same,"increase in tail withdrawal latency from baseline, peptide alone","C57BL/6J mice [3]; mice, 100, 300 or 600 μg i.n.s., out to 30 min post-administration, p = 0.01",~ 1 s
same,antagonism of DOR-selective agonist SNC-80,DOR,without effect
same,"antagonism of KOR-selective agonist U50,488",KOR,without effect
"CN1CC[C@]23c4c5ccc(O)c4O[C@H]2[C@@H](O)C=C[C@H]3[C@H]1C5 [morphine, reference compound]",respiration after morphine with saline pretreatment versus vehicle alone,"C57BL/6J mice [1]; morphine 20 mg/kg i.p. after i.n.s. saline, 10–60 min, p < 0.0001","significant, time-dependent respiratory depression"
same,tail-withdrawal latency after the agonist alone,"C57BL/6J mice [3]; control (naïve) mice, 10 nmol i.c.v., versus baseline 1.49 ± 0.09 s, p < 0.0001",significant increase in tail-withdrawal latency
"C[C@@H](O)[C@H](NC(=O)[C@H]1NC(=O)[C@H]([C@@H](C)O)NC(=O)[C@H](CCCN)NC(=O)[C@@H](Cc2c[nH]c3ccccc23)NC(=O)[C@H](Cc2ccc(O)cc2)NC(=O)[C@@H](NC(=O)[C@H](N)Cc2ccccc2)CSSC1(C)C)C(N)=O [CTOP, H-D-Phe-cyclo(Cys-Tyr-D-Trp-Orn-Thr-Pen)-Thr-NH2]",affinity for μ-opioid receptors (MOR),μ-opioid receptors (MOR) [4],2.8 nM
same,"MOR antagonism, times more potent than naloxone",μ-opioid receptors (MOR) [5],10–400 times
Y-A-S-P-K-C-F-R-f-C-Y-w-O-T-Pen-T-C-T-NH2,cleaved bond,[6],"K-C, first_seen, within the first 10 min; also recorded: Arg8-phe9, major, 1 h"
oxytocin,plasma t1/2,[7],1 to 6 min
same,t1/2 in the extracellular space of the brain and in the CSF,[7],approximately 30 min
YASPK-cyclo(CFRYPNGVLAC)T (disulfide) [odorranalectin],affinity for model glycoproteins,[8],μM affinities
